From patent US9745295B2, “Thiazole-substituted aminoheteroaryls as spleen tyrosine kinase inhibitors” (Merck Sharp & Dohme Corp., priority 2013, dated 2017)

Molecular target: T1, recombinant human GST-SYK (Homo sapiens, UniProt P43405)
T1 construct: purchased Carna Biosciences 08-176
Assay: Homogeneous Time-Resolved Fluorescence (HTRF) assay for the recombinant human Syk enzyme
Format: biochemical
Conditions: recombinant human GST-SYK 5 pM, ATP 25 μM, read-out: rhSYK IC50
Method: Homogeneous Time-Resolved Fluorescence (HTRF) Assay for the Recombinant Human Syk Enzyme
A recombinant GST-hSYK fusion protein was used to measure potency of compounds to inhibit human Syk activity. The recombinant human GST-SYK (Carna Biosciences #08-176) (5 pM final concentration) was incubated with various concentrations of the inhibitor diluted in DMSO (0.1% final concentration) for 10 minutes at room temperature in 15 mM Tris-HCl (pH 7.5), 0.01% tween 20, 2 mM DTT in 384 well plate format. To initiate the reaction the biotinylated substrate peptide (250 nM final concentration) that contains the phosphorylation site for Syk was added with magnesium (5 mM final concentration) and ATP (25 μM final concentration). Final volume of the reaction was 10 μL. Phosphorylation of the peptide was allowed to proceed for 45′ at room temperature. To quench the reaction and detect the phosphorylated product, 2 nM of a Europium-anti-phosphotyrosine antibody (Perkin Elmer #AD0161) and 70 nM SA-APC (Perkin-Elmer #CR130-100) were added together in 15 mM Tris pH 7.5, 40 mM EDTA, 0.01% tween 20. Final volume of the quenching solution was 10 μL.
The resulting HTRF signal was measured after 30 minutes on an EnVision (Perkin-Elmer) reader using a time-resolved fluorescence protocol. Table A below lists activities as IC50 values (nM) for representative compounds of the invention.

Compound	IC50 [nM]
CCCCOC(=O)[C@H]1CC[C@H](C(C)(O)c2ncc(-c3cc(Nc4nccc(OC)n4)cc(C)n3)s2)CC1 (single isomer, unassigned) [Example 4.7, butyl (trans)-4-((R or S)-1-hydroxy-1-(5-{4-[(4-methoxypyrimidin-2-yl)amino]-6-methylpyridin-2-yl}-1,3-thiazol-2-yl)ethyl]cyclohexane carboxylate]	73.6
Cc1cc(Nc2nccc(C(F)(F)F)n2)cc(-c2cnc(C(C)(O)[C@H]3CC[C@H](C(=O)O)CC3)s2)n1 (single isomer, unassigned) [Example 4.8, (trans)-4-((R or S)-1-hydroxy-1-[5-(6-methyl-4-{[4-(trifluoromethyl)pyrimidin-2-yl]amino}pyridin-2-yl)-1,3-thiazol-2-yl]ethyl}cyclohexane carboxylic acid]	0.266
COc1ccnc(Nc2cc(C)nc(-c3cnc(C(C)(O)[C@H]4CC[C@H](C(=O)O)CC4)s3)c2)n1 (single isomer, unassigned) [Example 4.9, (trans)-4-((R or S)-1-hydroxy-1-(5-{4-[(4-methoxypyrimidin-2-yl)amino]-6-methylpyridin-2-yl}-1,3-thiazol-2-yl)ethyl]cyclohexane carboxylic acid]	0.594
CCCCOC(=O)[C@H]1CC[C@H](C(C)(O)c2ncc(-c3cc(Nc4nccc(C)n4)cc(C)n3)s2)CC1 (single isomer, unassigned) [Example 4.10, butyl (trans)-4-((R or S)-1-hydroxy-1-(5-{6-methyl-4-[(4-methylpyrimidin-2-yl)amino]pyridin-2-yl}-1,3-thiazol-2-yl)ethyl]cyclohexane carboxylate]	94
Cc1cc(Nc2nccc(C)n2)cc(-c2cnc(C(C)(O)[C@H]3CC[C@H](C(=O)O)CC3)s2)n1 (single isomer, unassigned) [Example 4.11, (trans)-4-((R or S)-1-hydroxy-1-(5-{6-methyl-4-[(4-methylpyrimidin-2-yl)amino]pyridin-2-yl}-1,3-thiazol-2-yl)ethyl]cyclohexane carboxylic acid]	1.31
CC(O)(c1ncc(-c2cncc(Nc3cc(C(F)(F)F)ccn3)n2)s1)[C@H]1CC[C@H](C(=O)O)CC1 (single isomer, unassigned) [Example 4.12, (trans)-4-((R or S)-1-hydroxy-1-[5-(6-{[4-(trifluoromethyl)pyridin-2-yl]amino}pyrazin-2-yl)-1,3-thiazol-2-yl]ethyl}cyclohexane carboxylic acid]	1.82
Cc1cc(Nc2cc(C)ccn2)cc(-c2cnc(C(C)(O)[C@H]3CC[C@H](C(=O)O)CC3)s2)c1 (single isomer, unassigned) [Example 4.14, (trans)-4-((R or S)-1-hydroxy-1-(5-{3-methyl-5-[(4-methylpyridin-2-yl)amino]phenyl}-1,3-thiazol-2-yl)ethyl]cyclohexane carboxylic acid]	14.5
Cc1cc(Nc2cc(C)ccn2)cc(-c2cnc(C(C)(O)C3CCC(C(=O)O)CC3)s2)c1 (single isomer, unassigned) [Example 4.15, (trans)-4-((R or S)-[1-hydroxy-1-(5-{3-methyl-5-[(4-methylpyridin-2-yl)amino]phenyl}-1,3-thiazol-2-yl)ethyl]cyclohexanecarboxylic acid]	29.3
Cc1cc(Nc2nccc(C)n2)cc(-c2cnc(C3(O)CCC(C(=O)O)C(C)(C)C3)s2)n1 (single isomer, unassigned) [Example 4.16, (1S,4R or 1R,4S)-4-hydroxy-2,2-dimethyl-4-(5-{6-methyl-4-[(4-methylpyrimidin-2-yl)amino]pyridin-2-yl}-1,3-thiazol-2-yl)cyclohexane-carboxylic acid]	6.91
Cc1cc(Nc2nccc(C(F)F)n2)cc(-c2cnc(C(C)(O)C3CCC(C(=O)O)CC3)s2)n1 (single isomer, unassigned) [Example 4.17, (trans)-4-((R or S)-{1-[5-(4-{[4-(difluoromethyl)pyrimidin-2-yl]amino}-6-methylpyridin-2-yl)-1,3-thiazol-2-yl]-1-hydroxyethyl}cyclo-hexanecarboxylic acid]	1.37
